Values of other authors as cited in US10022349B2, “Cadotril particles” (Johnson & Johnson Consumer Inc., priority 2014, dated 2018).

What was measured:
[1] = poor aqueous solubility, dissolution rate limited absorption

SMILES: CC(=O)SC[C@H](Cc1ccccc1)C(=O)NCC(=O)OCc1ccccc1 [dexecadotril, N—[(R)-2-Benzyl-3-(acetylthio)propionyl]glycine benzyl ester]
- solubility in water (in words): insoluble in water

SMILES: CC(=O)SCC(Cc1ccccc1)C(=O)NCC(=O)OCc1ccccc1 (racemic) [Racecadotril, (RS)-benzyl N-[3-(acetylthio)-2-benzylpropanoyl]glycinate]
- Biopharmaceutical Classification System class [1]: class II
- solubility in water (in words): insoluble in water
- water solubility (room temperature): about 10 micrograms/ml

SMILES: CC(=O)SC[C@@H](Cc1ccccc1)C(=O)NCC(=O)OCc1ccccc1 [ecadotril, N—[(S)-2-[(Acetylthio)methyl]-1-oxo-3-phenylpropyl]glycinebenzyl ester]
- solubility in water (in words): insoluble in water
